Measured values published in ChEMBL document CHEMBL1201862, “PubChem BioAssay data set” (2004).
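Exposure lasted 48 hours, with cells grown in 96-well plates and compounds tested at five concentrations. At the GI50, growth is halved.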 The source made the active and inactive calls. Rule as the data show it: active = GI50 up to about 1.1 µM and inactive = higher.

Experiments:
Assay in all cases: inhibition of tumour cell growth, NCI panel, 48 h
KM12 = system: KM12
SN12C = system: SN12C
TK-10 = system: TK-10
HOP-62 = system: HOP-62
OVCAR-5 = system: OVCAR-5
OVCAR-4 = system: OVCAR-4
NCI-H522 = system: NCI-H522
SF-295 = system: SF-295
SK-OV-3 = system: SK-OV-3
OVCAR-8 = system: OVCAR-8
NCI-H23 = system: NCI-H23
SK-MEL-5 = system: SK-MEL-5
IGROV-1 = system: IGROV-1
UACC-62 = system: UACC-62
A498 = system: A498
SNB-75 = system: SNB-75
UACC-257 = system: UACC-257
SW-620 = system: SW-620
Hs-578T = system: Hs-578T
MOLT-4 = system: MOLT-4

Row | SMILES | GI50 (KM12) | GI50 (SN12C) | GI50 (TK-10) | GI50 (HOP-62) | GI50 (OVCAR-5) | GI50 (OVCAR-4) | GI50 (NCI-H522) | GI50 (SF-295) | GI50 (SK-OV-3) | GI50 (OVCAR-8) | GI50 (NCI-H23) | GI50 (SK-MEL-5) | GI50 (IGROV-1) | GI50 (UACC-62) | GI50 (A498) | GI50 (SNB-75) | GI50 (UACC-257) | GI50 (SW-620) | GI50 (Hs-578T) | GI50 (MOLT-4)
1 | CCCC/C=C1/CCC(CN(C)C)C1=O (stereo not given) | 0.673 µM (active) | 1.87 µM (inactive) | 1.01 µM (active) | 20 µM (inactive) | 6.01 µM (inactive) | 1.92 µM (inactive) | 0.656 µM (active) | 6.71 µM (inactive) | 12.9 µM (inactive) | 1.83 µM (inactive) | 3.41 µM (inactive) | 9.02 µM (inactive) | 3.98 µM (inactive) | 2.09 µM (inactive) | 8.77 µM (inactive) | 3.21 µM (inactive) | 2.17 µM (inactive) | 1.14 µM (inactive) | 3.18 µM (inactive) | 
2 | COC(=O)C1(C(=O)OC)CC2=C(S(=O)(=O)c3ccccc3)C[C@H](C#N)[C@H]2C1 | > 100 µM (inactive) | > 100 µM (inactive) | > 100 µM (inactive) | > 100 µM (inactive) | > 100 µM (inactive) | > 100 µM (inactive) | 46.3 µM (inactive) | > 100 µM (inactive) | > 100 µM (inactive) | > 100 µM (inactive) | > 100 µM (inactive) | > 100 µM (inactive) | 44.6 µM (inactive) | > 100 µM (inactive) | > 100 µM (inactive) | > 100 µM (inactive) | > 100 µM (inactive) | > 100 µM (inactive) | > 100 µM (inactive) | > 100 µM (inactive)
3 | Cc1n[n+]([O-])c(C)cc1[N+](=O)[O-] |  | 14.9 µM (inactive) | 8.67 µM (inactive) | 19.5 µM (inactive) | 19.5 µM (inactive) | 19.4 µM (inactive) | 12.3 µM (inactive) |  | 93.8 µM (inactive) | 15.5 µM (inactive) | 16 µM (inactive) | 16.3 µM (inactive) | 21.8 µM (inactive) | 17.7 µM (inactive) | 18.1 µM (inactive) | 23.8 µM (inactive) | 15.6 µM (inactive) | 15 µM (inactive) | 28.6 µM (inactive) | 
4 | O=C(CC(=O)CC(O)(C(F)(F)F)C(F)(F)F)CC(O)(C(F)(F)F)C(F)(F)F | > 10 µM (inactive) | > 10 µM (inactive) | > 10 µM (inactive) | > 10 µM (inactive) | > 10 µM (inactive) | > 10 µM (inactive) | > 10 µM (inactive) | > 10 µM (inactive) | > 10 µM (inactive) | > 10 µM (inactive) | > 10 µM (inactive) | > 10 µM (inactive) | > 10 µM (inactive) | > 10 µM (inactive) | > 10 µM (inactive) | > 10 µM (inactive) | > 10 µM (inactive) | > 10 µM (inactive) | > 10 µM (inactive) | > 10 µM (inactive)
5 | O=C1CC(NCc2ccccc2)c2c(Cl)sc(Cl)c21 (stereo not given) | 29.9 µM (inactive) | 26 µM (inactive) | 31.3 µM (inactive) | 29 µM (inactive) | 39.8 µM (inactive) | 28.4 µM (inactive) | 6.05 µM (inactive) | 38.7 µM (inactive) | > 74 µM (inactive) | 18 µM (inactive) | 17.4 µM (inactive) | 27 µM (inactive) | 26.1 µM (inactive) | 5.01 µM (inactive) | > 60.3 µM (inactive) | 29.8 µM (inactive) | 19.6 µM (inactive) | 17.7 µM (inactive) | 41.8 µM (inactive) | 4.23 µM (inactive)
6 | COc1cc2c(cc1OC)C1Cc3ccccc3CN1CCC2 (stereo not given) | > 100 µM (inactive) | > 100 µM (inactive) | > 100 µM (inactive) | > 100 µM (inactive) | > 100 µM (inactive) | 88.3 µM (inactive) | > 100 µM (inactive) | > 100 µM (inactive) | > 100 µM (inactive) | > 100 µM (inactive) | > 100 µM (inactive) | > 100 µM (inactive) | > 100 µM (inactive) | > 100 µM (inactive) | 97.7 µM (inactive) | 37.6 µM (inactive) | > 100 µM (inactive) | > 100 µM (inactive) | 93.1 µM (inactive) | 67.6 µM (inactive)
7 | CCOP(C)(=O)C(N)Cc1ccc(OC)c(OC)c1 (stereo not given) |  | > 100 µM (inactive) | > 100 µM (inactive) | > 100 µM (inactive) |  | > 100 µM (inactive) | > 100 µM (inactive) | > 100 µM (inactive) | > 100 µM (inactive) | > 100 µM (inactive) | > 100 µM (inactive) | > 100 µM (inactive) | > 100 µM (inactive) | > 100 µM (inactive) | > 100 µM (inactive) | > 100 µM (inactive) |  | > 100 µM (inactive) | > 100 µM (inactive) | > 100 µM (inactive)
8 | Clc1cccc2[nH]ncc12 | > 100 µM (inactive) | > 100 µM (inactive) | > 100 µM (inactive) | > 100 µM (inactive) | > 100 µM (inactive) | > 100 µM (inactive) | 26.5 µM (inactive) | > 100 µM (inactive) | > 100 µM (inactive) | > 100 µM (inactive) |  | > 100 µM (inactive) | > 100 µM (inactive) | > 100 µM (inactive) | > 100 µM (inactive) | 45.3 µM (inactive) | > 100 µM (inactive) | > 100 µM (inactive) | 76 µM (inactive) | > 100 µM (inactive)
9 | C=CC(C)(C)c1c(OC)oc2ccc(OC)c(C)c2c1=O | > 100 µM (inactive) | > 100 µM (inactive) | > 100 µM (inactive) | > 100 µM (inactive) | > 100 µM (inactive) |  | 98.2 µM (inactive) | > 100 µM (inactive) | > 100 µM (inactive) | > 100 µM (inactive) | > 100 µM (inactive) | 61.7 µM (inactive) | > 100 µM (inactive) | > 100 µM (inactive) | > 100 µM (inactive) | 89.5 µM (inactive) | > 100 µM (inactive) | > 100 µM (inactive) | > 100 µM (inactive) | 49.5 µM (inactive)
10 | C/C(O)=C/C(=O)c1[nH]c(C(=O)O)cc1C1CCN(Cc2ccccc2)C1=O (stereo not given) | 29.9 µM (inactive) |  | 27.9 µM (inactive) | 15.8 µM (inactive) | 25.2 µM (inactive) | 34 µM (inactive) | 23.7 µM (inactive) | 17.9 µM (inactive) | 22.8 µM (inactive) | 19.1 µM (inactive) | 17.9 µM (inactive) | 19.9 µM (inactive) | 25.3 µM (inactive) | 18.5 µM (inactive) | 41.1 µM (inactive) | 20.8 µM (inactive) | 22.4 µM (inactive) | 29.5 µM (inactive) | 32.4 µM (inactive) | 20 µM (inactive)
11 | Cc1cc(S(=O)(=O)Nc2nc(N)n[nH]2)c(SCC(=O)O)cc1Cl | > 10 µM (inactive) | > 10 µM (inactive) | > 10 µM (inactive) | > 10 µM (inactive) | > 10 µM (inactive) | > 10 µM (inactive) | > 10 µM (inactive) | > 10 µM (inactive) | > 10 µM (inactive) | > 10 µM (inactive) | > 10 µM (inactive) | > 10 µM (inactive) | > 10 µM (inactive) |  | > 10 µM (inactive) | > 10 µM (inactive) | > 10 µM (inactive) | > 10 µM (inactive) | > 10 µM (inactive) | > 10 µM (inactive)
12 | O=C(NCc1ccccc1)c1cnc(Cl)cn1 | > 100 µM (inactive) | > 100 µM (inactive) | > 100 µM (inactive) |  |  | 16.7 µM (inactive) | 2.12 µM (inactive) | > 100 µM (inactive) | > 100 µM (inactive) | 52.4 µM (inactive) | 23.3 µM (inactive) | 54 µM (inactive) | 42.8 µM (inactive) | > 100 µM (inactive) | > 100 µM (inactive) | 29.7 µM (inactive) | 53 µM (inactive) | > 100 µM (inactive) | 43.2 µM (inactive) | 27.1 µM (inactive)
13 | C/C=C1/CN2[C@@H](C3=C[C@@H]4[C@@H]5N(C3=O)c3ccccc3[C@@]53CCN5C/C(=C/C)[C@@H]4C[C@H]53)C[C@@]34c5ccccc5N5C(=O)CC=C([C@H]1C[C@H]23)[C@H]54 [ISOSUNGUCINE] | 5.41 µM (inactive) | 3.01 µM (inactive) | 7.85 µM (inactive) | 7.06 µM (inactive) | 7.76 µM (inactive) | 6.43 µM (inactive) | 6.9 µM (inactive) | 7.73 µM (inactive) | 8.77 µM (inactive) | 3.91 µM (inactive) | 6.85 µM (inactive) | 2.75 µM (inactive) |  | 2.86 µM (inactive) | 6.92 µM (inactive) | 7.91 µM (inactive) | 1.24 µM (inactive) | 2.92 µM (inactive) | 6.65 µM (inactive) | 1.46 µM (inactive)
14 | O=c1c2cc3c(=O)n4c(cc(-c5ccccc5)c5cc(Cl)ccc54)nc3cc2nc2cc(-c3ccccc3)c3cc(Cl)ccc3n12 | > 100 µM (inactive) | > 100 µM (inactive) | > 100 µM (inactive) | 34.9 µM (inactive) | > 100 µM (inactive) |  | > 100 µM (inactive) | > 100 µM (inactive) | > 100 µM (inactive) | > 100 µM (inactive) | > 100 µM (inactive) | > 100 µM (inactive) | > 100 µM (inactive) | > 100 µM (inactive) | > 100 µM (inactive) | 36.8 µM (inactive) | > 100 µM (inactive) | > 100 µM (inactive) | 43.4 µM (inactive) | > 100 µM (inactive)
